Among the data in patent publication US11208412B2 (DAEGU-GYEONGBUK MEDICAL INNOVATION FOUNDATION, priority 2017, dated 2021) are remaining binding values, retold here.

Molecules are shown by their SMILES.

What all share (test): Kinase selectivity, DiscoverX scanMAX Kinase assay panel (% control)
Common to all, as to format: binding

The target in assay [1] is T1, kinases of the scanMAX Kinase assay panel (Homo sapiens, UniProt P0C1S8).
T1 construct: purchased DiscoverX Co. (contract measurement) scanMAX Kinase assay panel
The settings on record: kinase WEE2; 1 uM in DMSO. An outline of the steps: (§1)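 Single-point screen, 1 uM cpd in DMSO. % ctrl = (cpd − pos ctrl)/(neg ctrl − pos ctrl)×100; pos ctrl = 0%, DMSO neg ctrl = 100%. Hit cutoff <35%.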

The target of assay [2] is T2, kinases of the scanMAX Kinase assay panel (Homo sapiens, UniProt O43283).
T2 construct: purchased DiscoverX Co. (contract measurement) scanMAX Kinase assay panel
T2 sequence (O43283 1-966): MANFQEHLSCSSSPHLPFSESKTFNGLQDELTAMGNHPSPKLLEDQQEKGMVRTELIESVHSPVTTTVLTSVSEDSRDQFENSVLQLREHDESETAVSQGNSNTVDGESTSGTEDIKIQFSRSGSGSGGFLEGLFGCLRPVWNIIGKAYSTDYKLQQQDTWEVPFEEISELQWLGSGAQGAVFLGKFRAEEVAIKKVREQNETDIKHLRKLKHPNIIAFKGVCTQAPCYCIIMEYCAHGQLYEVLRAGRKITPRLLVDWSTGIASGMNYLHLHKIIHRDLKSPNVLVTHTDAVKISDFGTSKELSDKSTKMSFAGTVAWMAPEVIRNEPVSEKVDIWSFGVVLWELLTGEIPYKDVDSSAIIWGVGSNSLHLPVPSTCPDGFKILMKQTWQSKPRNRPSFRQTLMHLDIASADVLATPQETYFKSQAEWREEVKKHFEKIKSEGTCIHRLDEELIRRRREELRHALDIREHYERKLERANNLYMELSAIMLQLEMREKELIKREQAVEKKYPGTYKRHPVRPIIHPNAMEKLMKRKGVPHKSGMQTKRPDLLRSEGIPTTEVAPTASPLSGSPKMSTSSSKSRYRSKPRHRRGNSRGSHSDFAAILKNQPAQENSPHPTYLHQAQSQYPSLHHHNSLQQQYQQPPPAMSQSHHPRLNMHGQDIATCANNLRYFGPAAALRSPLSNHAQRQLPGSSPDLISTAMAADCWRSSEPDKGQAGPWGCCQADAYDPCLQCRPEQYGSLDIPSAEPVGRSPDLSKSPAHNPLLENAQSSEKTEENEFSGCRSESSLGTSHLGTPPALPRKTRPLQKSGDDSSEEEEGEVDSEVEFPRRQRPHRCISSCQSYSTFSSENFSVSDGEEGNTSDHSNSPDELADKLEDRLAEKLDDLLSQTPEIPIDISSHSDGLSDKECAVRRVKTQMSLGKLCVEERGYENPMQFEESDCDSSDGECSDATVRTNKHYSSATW
The note with it: LZK; 1 uM. The method in brief: as §1

Assay [3] concerns the target T3, kinases of the scanMAX Kinase assay panel (Homo sapiens, UniProt Q15208).
T3 construct: purchased DiscoverX Co. (contract measurement) scanMAX Kinase assay panel
The settings on record: NDR1; 1 uM. An outline of the steps:
as §1

For assay [4], the target named is T4, kinases of the scanMAX Kinase assay panel (Homo sapiens, UniProt Q96D53).
T4 construct: purchased DiscoverX Co. (contract measurement) scanMAX Kinase assay panel
T4 sequence (Q96D53 1-544): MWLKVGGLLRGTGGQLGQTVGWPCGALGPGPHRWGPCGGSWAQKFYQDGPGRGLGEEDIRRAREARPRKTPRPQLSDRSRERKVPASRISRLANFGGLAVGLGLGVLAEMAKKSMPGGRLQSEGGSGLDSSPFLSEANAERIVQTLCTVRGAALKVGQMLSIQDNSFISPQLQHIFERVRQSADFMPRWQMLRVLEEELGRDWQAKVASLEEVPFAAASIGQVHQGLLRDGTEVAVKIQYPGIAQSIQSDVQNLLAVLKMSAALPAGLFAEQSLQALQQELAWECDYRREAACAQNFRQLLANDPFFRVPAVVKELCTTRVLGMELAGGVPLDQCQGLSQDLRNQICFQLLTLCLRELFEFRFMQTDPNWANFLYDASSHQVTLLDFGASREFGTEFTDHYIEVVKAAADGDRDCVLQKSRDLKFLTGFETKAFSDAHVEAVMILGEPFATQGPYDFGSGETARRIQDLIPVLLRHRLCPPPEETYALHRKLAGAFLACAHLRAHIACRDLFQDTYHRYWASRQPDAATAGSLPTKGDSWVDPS
The note with it: ADCK4; 1 uM. An outline of the steps:
as §1

In assay [5] the target is T5, kinases of the scanMAX Kinase assay panel (Homo sapiens, UniProt P49336).
T5 construct: purchased DiscoverX Co. (contract measurement) scanMAX Kinase assay panel
The note with it: CDK8; 1 uM. An outline of the steps: as §1

Assay [6] addresses T6, kinases of the scanMAX Kinase assay panel (Homo sapiens, UniProt O75914).
T6 construct: purchased DiscoverX Co. (contract measurement) scanMAX Kinase assay panel
The note with it: PAK3; 1 uM. The method in brief:
as §1

T5 sequence (P49336 whole entry): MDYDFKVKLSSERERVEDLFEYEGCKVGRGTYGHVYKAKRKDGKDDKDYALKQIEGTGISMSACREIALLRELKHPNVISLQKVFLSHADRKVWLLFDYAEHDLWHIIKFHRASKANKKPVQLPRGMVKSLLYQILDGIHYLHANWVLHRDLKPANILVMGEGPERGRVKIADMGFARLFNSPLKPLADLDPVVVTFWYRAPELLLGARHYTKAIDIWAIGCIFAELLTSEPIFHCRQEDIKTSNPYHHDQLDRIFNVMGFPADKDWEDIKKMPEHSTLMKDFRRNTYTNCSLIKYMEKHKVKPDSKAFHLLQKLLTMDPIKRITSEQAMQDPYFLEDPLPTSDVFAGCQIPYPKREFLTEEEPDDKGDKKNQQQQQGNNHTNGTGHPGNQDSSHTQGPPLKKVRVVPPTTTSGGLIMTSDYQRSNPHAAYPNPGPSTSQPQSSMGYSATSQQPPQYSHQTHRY
T1 sequence (P0C1S8 whole entry): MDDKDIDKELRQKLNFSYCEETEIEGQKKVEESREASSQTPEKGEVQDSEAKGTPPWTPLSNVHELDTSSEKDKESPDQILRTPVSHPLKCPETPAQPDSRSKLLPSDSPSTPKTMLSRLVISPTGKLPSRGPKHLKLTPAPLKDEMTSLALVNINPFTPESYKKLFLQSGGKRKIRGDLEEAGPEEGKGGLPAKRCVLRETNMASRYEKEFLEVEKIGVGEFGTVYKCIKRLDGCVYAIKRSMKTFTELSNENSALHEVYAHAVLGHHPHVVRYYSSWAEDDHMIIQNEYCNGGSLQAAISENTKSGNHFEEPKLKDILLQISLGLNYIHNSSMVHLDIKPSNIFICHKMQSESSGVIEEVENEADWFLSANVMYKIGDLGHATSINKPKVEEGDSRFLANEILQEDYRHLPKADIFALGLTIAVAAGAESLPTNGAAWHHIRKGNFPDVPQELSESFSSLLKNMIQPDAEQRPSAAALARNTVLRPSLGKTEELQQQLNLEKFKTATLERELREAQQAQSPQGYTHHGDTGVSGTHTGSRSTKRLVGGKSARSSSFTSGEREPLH
T6 sequence (O75914 whole entry): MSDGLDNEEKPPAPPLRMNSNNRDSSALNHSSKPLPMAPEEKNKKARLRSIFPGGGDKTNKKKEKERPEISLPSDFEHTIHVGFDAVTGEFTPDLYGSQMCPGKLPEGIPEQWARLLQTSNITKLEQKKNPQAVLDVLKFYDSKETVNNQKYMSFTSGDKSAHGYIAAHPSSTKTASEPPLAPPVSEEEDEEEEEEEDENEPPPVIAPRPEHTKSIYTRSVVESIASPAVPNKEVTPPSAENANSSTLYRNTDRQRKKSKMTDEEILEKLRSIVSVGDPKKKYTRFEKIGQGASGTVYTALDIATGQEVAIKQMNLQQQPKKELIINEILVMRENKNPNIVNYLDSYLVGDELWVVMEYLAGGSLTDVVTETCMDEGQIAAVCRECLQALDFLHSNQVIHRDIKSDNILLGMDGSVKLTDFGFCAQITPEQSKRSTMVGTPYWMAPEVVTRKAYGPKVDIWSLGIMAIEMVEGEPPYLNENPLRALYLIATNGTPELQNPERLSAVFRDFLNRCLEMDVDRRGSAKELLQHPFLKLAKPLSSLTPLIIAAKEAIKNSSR
T3 sequence (Q15208 whole entry): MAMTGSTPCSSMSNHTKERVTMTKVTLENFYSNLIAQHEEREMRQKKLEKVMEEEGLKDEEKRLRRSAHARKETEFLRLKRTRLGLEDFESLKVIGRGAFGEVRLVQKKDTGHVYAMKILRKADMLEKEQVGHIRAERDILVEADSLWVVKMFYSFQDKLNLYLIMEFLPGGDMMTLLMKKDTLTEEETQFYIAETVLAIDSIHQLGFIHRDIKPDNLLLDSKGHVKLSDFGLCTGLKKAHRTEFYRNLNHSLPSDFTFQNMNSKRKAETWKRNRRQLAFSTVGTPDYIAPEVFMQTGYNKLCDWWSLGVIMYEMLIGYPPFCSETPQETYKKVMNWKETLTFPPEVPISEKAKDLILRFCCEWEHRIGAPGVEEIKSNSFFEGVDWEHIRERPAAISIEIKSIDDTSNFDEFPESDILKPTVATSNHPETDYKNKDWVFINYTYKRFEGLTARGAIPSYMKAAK

`CNc1nc(Nc2ccc(C(=O)N3CCOCC3)cc2OC)nc2[nH]cc(C#N)c12` [Example 1, 2-((2-methoxy-4-(morpholine-4-carbonyl)phenyl)amino)-4-(methylamino)-7H-pyrrolo[2,3-d]pyrimidine-5-carbonitrile]: the remaining binding at 1 µM came out at 100% in assay [1]; 81% in assay [2]; 84% in assay [3]; 100% in assay [4]; 100% in assay [5]; 68% in assay [6].

Take `CC1(Nc2nc(Nc3cnn([C@H]4CCN(C5COC5)C[C@@H]4F)c3Cl)nc3[nH]cc(C#N)c23)CC1` [Example 52, 2-((5-chloro-1-((3S,4S)-3-fluoro-1-(oxetane-3-yl)piperidine-4-yl)-1H-pyrazole-4-yl)amino)((1-methylcyclopropyl)amino)-7H-pyrrolo[2,3-d]pyrimidine-5-carbonitrile]: the remaining binding at 1 µM in assay [1] was 100%; in assay [2], 16%; in assay [3], 42%; in assay [4], 76%; in assay [5], 76%; in assay [6], 17%.

Turning to `CCNc1nc(Nc2ccc(C(=O)N3CCC(N4CCOCC4)CC3)cc2OC)nc2[nH]cc(C(F)(F)F)c12` [Example 104, (4-((4-(ethylamino)-5-(trifluoromethyl)-7H-pyrrolo[2,3-d]pyrimidine-2-yl)amino)-3-methoxyphenyl)(4-morpholinopiperidine-1-yl)methanone], the remaining binding at 1 µM is 100% in assay [1]; 100% in assay [2]; 94% in assay [3]; 100% in assay [4]; 86% in assay [5]; 100% in assay [6].
